Assay [1] concerns MCF 7 (Breast). The assay is described as follows: killing of cultured cells, MCF 7. To be noted: compound at two to fourfold above its threshold killing concentration. It is filed as cell-based. Set-up: key: “+” indicates that the cells were killed by treatment; “−” indicates that they were not; “+/−” indicates a slow marginal response seen only in a few special cases with fibroblasts experimentally transformed by introduction of the ras oncogene. The source says:
(§1) Table 1: Summarized are the responses of cells in culture to killing by example members of the family of blocked lipoate derivatives that are the object of this invention as well as one control compound (dihydroxyoctanoic acid). At right is indicated the specific cell line followed by the tissue of origin of the cell line. Across the top are listed the specific compounds tested. Each blocked lipoate derivative was used at two to fourfold above its threshold killing concentration. [These concentrations range form 0.15 mM (60 ug/ml or 60 mg/kg) to 2.5 mM (800 ug/ml or 800 mg/kg) (see EXAMPLE 11).] […] “+/−” indicates a slow marginal response seen only in a few special cases with fibroblasts experimentally transformed by introduction of the ras oncogene (EXAMPLE 10).
(§2) First, each cell type to be tested was plated at low densities in the wells of a standard 6×24 well tissue culture plate. (Multiple wells are seeded for each cell type.)
(§3) Second, the cells were allowed to grow to moderate densities. Transformed cells are in contact and non-transformed cells are contact-inhibited under these conditions.
(§4) Third, the lipoate derivatives to be tested were added to individual wells. In these experiments each compound was added at two to fourfold above the threshold killing concentration for cancer cells (EXAMPLE 11).
(§5) Fourth, cells were monitored over the next several days.

The subject of assay [2] is NIH 3T3 ras transformed. The assay is described as follows: killing of cultured cells, ras-transformed NIH 3T3 (T24). The assay is classed as cell-based. Also noted: key to cells killed by treatment: “+” indicates that the cells were killed by treatment; “−” indicates that they were not; “+/−” indicates a slow marginal response seen only in a few special cases with fibroblasts experimentally transformed by introduction of the ras oncogene.
From the text: as §1, §2, §3, §4, §5
NIH-3T3 cells are relatively normal, noncancerous cells. However, if an activated allele of the ras oncogene is introduced into these cells they become highly malignant (cancerous) as assessed by several assays (REFERENCE).

The test system of assay [3] is MDCK (Kidney). As to the kind of experiment: killing of cultured cells, MDCK. To be noted: 120 ug/ml, ca. 48 hours. It is filed as cell-based.
From the text: as §1, §2, §3, §4, §5

In assay [4] the test system is HeLa (cervical cancer) cells. The assay is described as follows: TUNEL assay for apoptosis. The assay is classed as cell-based. To be noted: ca. 20-24 hours, ca. twofold above threshold killing concentration. The source says: In order to understand the experiment described in this Example is necessary to review details concerning the specific assay used in the experiments. Nuclear DNA of cells is normally present in the very long molecules making up chromosomes. These very long polymer molecules have only extremely rare free ends. In contrast, after the induction of apoptosis the cell begins to destroy itself and, in the process, introduces an extremely large number of breaks in its DNA in the process of reducing it to its small monomer constituents. The appropriate enzyme —terminal transferase—will add nucleotides to the free ends of DNA molecules. Moreover, this enzyme will use monomers (nucleotides) for this addition reaction that have highly fluorescent groups added to them. Thus, if the nuclei of normal cells—with few free DNA ends—are exposed to terminal transferase and fluorescent monomers very little fluorescence is added to these nuclei. In contrast, when these components are added to the nuclei of cells undergoing apoptosis and very large number of fluorescent monomers are added—to the very many DNA ends that are present—resulting in a massive introduction of fluorescence. The conventional assay based on these properties is referred by the acronym TUNEL. […] HeLa cancerous cells were plated in several wells in a tissue culture dish. […]

The test system of assay [5] is B-16 melanoma. The assay is described as follows: B-16 system, cells injected IP. It is filed as in vivo, mouse. To be noted: 100 mg/kg IP twice a day, 16 days, B-16 cells IP in C57/BL mice. From the text:
(§6) The B-16 melanoma strain was introduced either subcutaneously or intraperitoneally into individuals of the C57/BL syngeneic mouse strain (7). When left untreated such mice develop massive tumors in the immediate area of injection as well as secondary metastases throughout the animal—including in the liver and the lungs. These malignant growths result in the early death of the animals. Moreover, the resulting malignant growths are made up of darkly pigmented malignant melanocytes—making their assessment convenient and highly reliable. We will henceforth refer to this as the “B-16 system”.
First, a group of mice were injected IP with B-16 cells. The injected group was divided at random into two equal subsets. One subset (experimental) was injected IP twice a day with 100 mg/kg of the bis-benzoyl lipoate member of the compound class in 200 ul of 10% ethanol. [See EXAMPLES 3, 8 and 11 for descriptions of bis-benzoyl lipoate.] The second subset (control) was injected with 200 ul of 10% ethanol alone.
After 16 days, the animals were examined—including by dissection where appropriate. The control animals had numerous, massive IP tumor masses.

The subject of assay [6] is B-16 melanoma. The assay is described as follows: B-16 system, subcutaneous tumors. The assay is classed as in vivo, mouse. As to conditions: 50 mg/kg IP twice daily plus twice daily injection directly into the tumor mass.
From the text: as §6
Second, a group of animals were injected at a subcutaneous site with B-16 cells. […] As this time, one group oL animals (experimentals) began a twice-daily series of injections of the bis-acetyl lipoate derivative (100 mg/kg in 100 ul of isotonic saline) and a second set (controls) of corresponding injections of the saline solvent alone. [See EXAMPLES 2, 8 and 11 for the details of bis-acetyl lipoate derivative.]
Third, in several animals subcutaneous tumors were produced as in the preceding paragraph. After the tumors had grown to visible, palpable size, these animals received both a twice daily IP (systemic) dose of 50 mg/kg of bis-benzoyl lipoate as well as a twice daily direct injection a second dose of the same volume directly into the tumor mass.

The structures appear in SMILES notation.

Consider `O=C(O)CCCCC(CCSC(=O)c1ccccc1)SC(=O)c1ccccc1` (centres unmarked) [bis-benzoyl lipoate, 6,8-bisbenzoylmercaptooctanoic acid], for which the “cells killed by treatment” value in assay [1] is reported as “+”; in assay [2] (NIH 3T3 ras transformed, compound at two to fourfold above its threshold killing concentration) it was “+”. Further, the “cancerous (transformed) cells killed (FIG. 2)” value in assay [2] (120 ug/ml, 24 hours of treatment, T24 ras-transformed NIH3T3) is “ca. 50%”. Moreover, in assay [2] (120 ug/ml, ca. 48 hours of treatment), the “killing of transformed cells (FIG. 2)” value was “almost entirely irradicated”. Moreover, in assay [3], the “effect on normal (non-cancerous) kidney epithelial cell line (FIG. 1)” value was “not detectably affected”. In addition, the “induction of apoptosis (TUNEL)” value in assay [4] is listed as “induces apoptosis”. In assay [5], the “tumor mass relative to the control sample” value is 30-50%. For the same molecule, in assay [6], the “response of subcutaneous tumor” value is “especially robust response”.

For the origin of these results see US6951887B2 (The Research Foundation of State University of New York, priority 1998, dated 2005).
